{"source": "patent US7271157B2", "about": "“A1 adenosine receptor agonists” (CV Therapeutics, Inc., priority 2004, dated 2007)", "origin": "cited, not measured here", "key": {"[1]": {"tested_on": "seizures induced by DMCM", "conditions": "experimental models of epilepsy"}, "[2]": {"biological_target": "T1, A1-adenosine receptor (Homo sapiens, UniProt P30542)", "T1 sequence (P30542 1-326)": "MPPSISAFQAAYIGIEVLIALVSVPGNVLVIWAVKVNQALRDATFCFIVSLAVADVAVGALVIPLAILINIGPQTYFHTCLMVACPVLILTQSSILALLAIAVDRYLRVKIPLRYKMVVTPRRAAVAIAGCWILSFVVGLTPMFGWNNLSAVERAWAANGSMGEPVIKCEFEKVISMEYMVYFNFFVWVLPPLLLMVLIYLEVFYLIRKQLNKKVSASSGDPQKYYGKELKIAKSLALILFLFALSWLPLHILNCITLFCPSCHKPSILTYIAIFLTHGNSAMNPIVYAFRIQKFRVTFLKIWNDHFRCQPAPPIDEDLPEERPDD"}}}
{"smiles": "Cc1ccccc1CNc1ncnc2c1ncn2[C@@H]1O[C@H](CO)[C@@H](O)[C@H]1O", "note": "[metrifudil]", "values": [{"measurement": "anticonvulsant activity against DMCM-induced seizures", "setting": "[1]", "value": "potent anticonvulsant"}]}
{"smiles": "Nc1ncnc2c1ncn2[C@@H]1O[C@H](CO)[C@@H](O)[C@H]1O", "note": "[adenosine]", "values": [{"measurement": "half-life", "value": "less than 10 sec"}]}
{"smiles": "OC1CCCC1Nc1ncnc2c1ncn2[C@@H]1O[C@H](CSc2ccccc2F)[C@@H](O)[C@H]1O", "note": "(mixture of isomers) [(4S,5S,2R,3R)-5-[(2-fluorophenylthio)methyl]-2-{6-[(2-hydroxycyclopentyl)amino]-purin-9-yl}oxolane-3,4-diol]", "values": [{"measurement": "A1-adenosine receptor agonist character and selectivity", "setting": "[2]", "value": "highly selective partial A1-adenosine receptor agonist"}]}
